What was measured:
[1] = tested on: normal rats; test: Blood pressures and heart rates in normal rats; type: in vivo, rat; settings: oral
Experimental: The blood pressures and heart rates of female Wistar rats were measured in accordance with the following procedure. On the day of measurement, indwelling of catheters for blood pressure•heart rate measurement was carried out under anesthesia with ether. The back of the neck of each rat was incised; a feeding catheter (Atom Medical Corporation) filled with heparinized physiological saline was introduced from the back of the neck; the catheter was inserted into the common carotid artery; and the surgical incision was closed. The measurements were carried out in a Bollmann cage under the conscious state, and the evaluations were carried out after confirming that the individual parameters were stabilized. After confirming the stabilization of blood pressure and heart rate, the test compound which was prepared using injectable water containing equimolar NaOH was orally administered at a dose of 5 mL/kg.
The catheter drawn from the back of the neck was connected to a pressure transducer (DX-200, NIHON KOHDEN CORP.), and the blood pressures and heart rates were measured using an amplifier for pressure measurement (Gould Instrument). The blood pressures and heart rates were recorded using a recorder (LINEARCORDERWR3320, GRAPHTEC). For each individual, rates of increase and decrease in average blood pressure and heart rate before administration and 30, 60, 120, and 180 min after administration were calculated with respect to the values of each individual before administration. Changes in blood pressure and heart rate before and after administration of the test compound were evaluated.

[2] = tested on: bladder detrusor; test: Contraction of isolated rat bladder strip specimens (Magnus system), KCl-induced contraction; type: cell-based; settings: for Contractility of the bladder detrusor according to the compound concentration treated: rat bladder strip
Experimental: Rats were anesthetized with pentobarbital, followed by abdominal incision to remove the bladders and the urethras. The bladder bodies were cut in the longitudinal direction to prepare strip specimens with a size of about 10×3 mm. Additionally, each of the urethras was also cut in the longitudinal direction to prepare specimens with a size of about 10×3 mm. The prepared specimens were suspended in Krebs buffer (37° C., 5 mL), which was aerated with a mixed gas of 95% O2 and 5% CO2. The tension values of the specimens were measured using a Magnus system equipped with an isometric transducer and an amplifier, and the measured values were recorded on a computer via a data collection system.
The specimens were suspended with a load of about 0.5 g. More than 1 hr later, potassium chloride (100 mmol/L) was added and the maximal contraction response was observed. After washing with Krebs buffer, the specimens were suspended with a load of about 0.5 g for stabilization. A potassium chloride solution (7.5 mmol/L) was added to induce the contraction of the specimens. After the contraction-inducing response was stabilized, the test compound was added in a cumulative manner and the response was observed before and after the treatment with the drug.

[3] = tested on: human lyophilized liver cells; test: Stability evaluation in lyophilized liver cells; type: in vitro ADME; settings: 37° C.
Experimental: KHEM5100 medium which includes human lyophilized liver cells after dissolving (final concentration of living cells: 1×10^6 cells/mL) and the test compound (acetonitrile or methanol solution, final concentration≦1%) was incubated at 37° C. Immediately after reaction and with the passage of reaction time, some portions were sampled from the medium. The concentrations of the test compound in the samples were measured by LC/MS/MS. The residual rate of the test compound relative to immediately after reaction was calculated by the following equation: Residual rate=the concentration of the test compound in the sample after reaction/the concentration of the test compound in the sample immediately after reaction×100(%) The residual rates were plotted on a single logarithmic scale against reaction time to calculate loss rate constants. The test was repeated (n=2), and the obtained values were averaged.

[4] = tested on: spontaneously hypertensive rats; test: Blood pressure and heart rate measurement in hypertensive rats; type: in vivo, rat; settings: continuous intravenous administration for 30 min
Experimental: The blood pressures and heart rates of male spontaneously hypertensive rats were measured. On the day of measurement, indwelling of catheters for blood pressure•heart rate measurement and subject substance administration was carried out under anesthesia with ether. The back of the neck of each rat was incised, a feeding catheter (Atom Medical Corporation) filled with heparinized physiological saline was introduced from the back of the neck; the catheter was inserted into the common carotid artery and internal jugular vein; and the surgical incision was closed. The measurements were conducted in a Bollmann cage under the conscious state and evaluations were carried out after confirming that the individual parameters were stabilized. After confirming the stabilization of blood pressure and heart rate, the test compound was continuously administered intravenously at a flow rate of 5 mL/kg/h for 30 min.
The catheter drawn from the back of the neck was connected to a pressure transducer (DX-200, NIHON KOHDEN CORP.), and the blood pressures and heart rates were measured using a blood pressure amplifier (Gould instrument). The blood pressures and heart rates were recorded on recording paper using a recorder (LINEARCORDER WR3320, GRAPHTEC). The blood pressures and heart rates were converted into values on the recording paper before administration and 2.5, 5, 10, 15, 30, 45 and 60 min after administration. For each individual, rates of increase and decrease in the parameters were evaluated relative to the value before administration (value at 0 min).

- Residual rate ([3]; Reaction time 0 h): 100%
- Residual rate ([3]; Reaction time 0.5 h): 111%
- Residual rate ([3]; Reaction time 1 h): 101%
- Residual rate ([3]; Reaction time 1 h, listed as compound 17): 100%
- Residual rate ([3]; Reaction time 2 h): 82.2%
- Residual rate ([3]; Reaction time 2 h, listed as compound 17): ≥ 80%
Structure (SMILES): C[C@@](O)(C/C=C/[C@H]1CCC(=O)[C@@H]1CCSc1nc(C(=O)O)cs1)CCC(F)=C(F)F [Compound 17, 2-[(2-{(1R,5R)-2-oxo-5-[(1E,4S)-7,8,8-trifluoro-4-hydroxy-4-methyl-1,7-octadien-1-yl]cyclopentyl}ethyl)thio]-1,3-thiazole-4-carboxylic acid]
- effect on the blood pressure ([1]; 0.3 mg/kg): no effect
- effect on the heart rate ([1]; 0.3 mg/kg): no effect
- effect on the blood pressure ([1]; 1 mg/kg): no effect
- Contractility of the bladder detrusor according to the compound concentration treated ([2]; 0 nmol/L): 3 % of 7.5 mmol/L KCl
- Contractility of the bladder detrusor according to the compound concentration treated ([2]; 1 nmol/L): −2 % of 7.5 mmol/L KCl
- Contractility of the bladder detrusor according to the compound concentration treated ([2]; 10 nmol/L): 23 % of 7.5 mmol/L KCl
- Contractility of the bladder detrusor according to the compound concentration treated ([2]; 100 nmol/L): 100 % of 7.5 mmol/L KCl
- Contractility of the bladder detrusor according to the compound concentration treated ([2]; 1 μmol/L): 180 % of 7.5 mmol/L KCl
- Contractility of the bladder detrusor according to the compound concentration treated ([2]; 10 μmol/L): 259 % of 7.5 mmol/L KCl
- effect on the bladder detrusor ([2]; summary in words of Table 1): contracted the bladder detrusor
- effect on the blood pressure [4]: no effect

From patent US9150528B2, “Compound having detrusor muscle-contracting activity and urethral sphincter muscle-relaxing activity” (ONO PHARMACEUTICAL CO., LTD., priority 2009, dated 2015)
